The source made the active and inactive calls.
What was measured:
[1] = target: Nucleotide-binding oligomerization domain-containing protein 2 (Homo sapiens, UniProt Q9HC29); test: inhibition of NOD2-driven NF-kB reporter – cell-based, luminescence, uHTS, HEK293 (AID 1566); format: functional
[2] = tested on: HEK293; test: cells; format: functional, cell-based; conditions: Homo sapiens
[3] = tested on: HEK293; test: cells; format: functional, cell-based; conditions: Homo sapiens; remark: listed apart in the source
[4] = tested on: HEK293; test: NOD2 signaling inhibitors in MDP-stimulated cells, cell-based, uHTS, luminescence (AID 2001); format: functional; conditions: Homo sapiens
[5] = tested on: HEK293; test: inhibition of NOD1-driven NF-kB reporter – cell-based, luminescence, uHTS, primary screen (AID 1578); format: functional; conditions: Homo sapiens
[6] = microbe, parasite or virus in culture; format: functional; conditions: Mycobacterium tuberculosis
[7] = tested on: HEK293; test: cells; format: functional, cell-based; conditions: Homo sapiens; remark: listed apart in the source
[8] = tested on: Streptococcus; test: GAS UMAA2166 growth inhibition – luminescence, BacTiterGlo, counter-screen for streptokinase expression inhibitor project, dose response (AID 1915); format: functional, organism-based;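 note: potency for reduction of bacterial viability or growth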
[9] = tested on: Streptococcus sp. 'group A'; test: Streptococcus pyogenes SK(-)GAS viability under kanamycin – luminescence, BacTiterGlo, confirmation, counter-screen for streptokinase expression inhibitor project, dose response (AID 1900); format: functional, organism-based
[10] = target: T1, Replicative DNA helicase DnaB (Mycobacterium tuberculosis, UniProt P9WMR3); test: DnaB intein splicing inhibitors, dose response, biochemical, cell-free fluorescence (AID 449749); format: functional
T1 sequence (P9WMR3 whole entry): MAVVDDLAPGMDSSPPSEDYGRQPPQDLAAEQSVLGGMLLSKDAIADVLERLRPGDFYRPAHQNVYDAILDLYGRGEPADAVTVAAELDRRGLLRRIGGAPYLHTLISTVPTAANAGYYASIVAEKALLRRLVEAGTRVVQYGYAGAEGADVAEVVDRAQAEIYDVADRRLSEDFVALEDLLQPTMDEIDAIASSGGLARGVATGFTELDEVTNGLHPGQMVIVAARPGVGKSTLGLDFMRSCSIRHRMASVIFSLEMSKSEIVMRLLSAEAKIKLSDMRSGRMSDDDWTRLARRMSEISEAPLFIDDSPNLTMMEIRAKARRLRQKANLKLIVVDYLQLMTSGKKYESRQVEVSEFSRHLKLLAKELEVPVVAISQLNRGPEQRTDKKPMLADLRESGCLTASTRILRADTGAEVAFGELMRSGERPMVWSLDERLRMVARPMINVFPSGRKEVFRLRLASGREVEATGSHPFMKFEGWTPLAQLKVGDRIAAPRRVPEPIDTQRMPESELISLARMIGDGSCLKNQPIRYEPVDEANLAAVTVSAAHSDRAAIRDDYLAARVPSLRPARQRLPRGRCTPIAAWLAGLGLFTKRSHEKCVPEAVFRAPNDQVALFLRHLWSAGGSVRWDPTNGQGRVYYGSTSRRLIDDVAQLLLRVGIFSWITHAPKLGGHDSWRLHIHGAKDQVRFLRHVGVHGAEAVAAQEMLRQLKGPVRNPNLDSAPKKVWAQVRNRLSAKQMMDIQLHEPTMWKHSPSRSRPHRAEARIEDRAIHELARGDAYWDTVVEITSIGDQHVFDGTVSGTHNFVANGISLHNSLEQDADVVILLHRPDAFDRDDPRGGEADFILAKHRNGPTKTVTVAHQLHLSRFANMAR

[11] = target: T2, Protein RecA (Mycobacterium tuberculosis, UniProt P9WHJ3); test: Fluorescence Cell-Free Homogeneous Dose Retest to Identify Inhibitors of RecA-Intein Splicing Activity. [Related pubchem assays (depositor defined):AID2097, AID2223, AID489010, AID492950]; format: functional
T2 sequence (P9WHJ3 whole entry): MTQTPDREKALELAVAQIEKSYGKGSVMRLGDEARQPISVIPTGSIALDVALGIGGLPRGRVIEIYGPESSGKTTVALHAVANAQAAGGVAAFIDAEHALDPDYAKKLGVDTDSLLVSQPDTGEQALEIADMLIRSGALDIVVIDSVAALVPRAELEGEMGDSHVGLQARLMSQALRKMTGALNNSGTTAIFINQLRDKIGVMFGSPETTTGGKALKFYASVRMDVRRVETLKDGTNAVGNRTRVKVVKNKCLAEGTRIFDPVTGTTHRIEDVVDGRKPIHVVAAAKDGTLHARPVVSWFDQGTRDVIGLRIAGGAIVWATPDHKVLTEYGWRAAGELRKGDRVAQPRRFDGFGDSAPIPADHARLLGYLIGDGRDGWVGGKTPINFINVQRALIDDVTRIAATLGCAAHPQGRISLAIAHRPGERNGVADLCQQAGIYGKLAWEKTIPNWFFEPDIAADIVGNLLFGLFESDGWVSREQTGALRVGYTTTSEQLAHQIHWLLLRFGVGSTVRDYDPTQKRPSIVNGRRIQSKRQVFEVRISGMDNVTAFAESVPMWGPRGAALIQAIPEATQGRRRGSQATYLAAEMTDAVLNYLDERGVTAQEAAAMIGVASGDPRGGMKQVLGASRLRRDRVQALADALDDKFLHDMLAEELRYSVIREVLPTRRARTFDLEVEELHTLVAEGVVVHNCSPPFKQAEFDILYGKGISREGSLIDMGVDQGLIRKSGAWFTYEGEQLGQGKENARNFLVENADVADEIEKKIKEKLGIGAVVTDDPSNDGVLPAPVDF

[12] = target: Runt-related transcription factor 1/Core-binding factor subunit beta (Homo sapiens, UniProt Q01196+Q13951); test: Confirmation of compounds inhibiting the binding between the RUNX1 Runt domain and CBFb-SMMHC via a fluorescence resonance energy transfer (FRET) assay. [Related pubchem assays (depositor defined):AID1434, AID1438, AID1496, AID1550, AID1645]; format: protein assay
Chain of Runt-related transcription factor 1/Core-binding factor subunit beta (Q01196 whole entry, the tested form may be a part): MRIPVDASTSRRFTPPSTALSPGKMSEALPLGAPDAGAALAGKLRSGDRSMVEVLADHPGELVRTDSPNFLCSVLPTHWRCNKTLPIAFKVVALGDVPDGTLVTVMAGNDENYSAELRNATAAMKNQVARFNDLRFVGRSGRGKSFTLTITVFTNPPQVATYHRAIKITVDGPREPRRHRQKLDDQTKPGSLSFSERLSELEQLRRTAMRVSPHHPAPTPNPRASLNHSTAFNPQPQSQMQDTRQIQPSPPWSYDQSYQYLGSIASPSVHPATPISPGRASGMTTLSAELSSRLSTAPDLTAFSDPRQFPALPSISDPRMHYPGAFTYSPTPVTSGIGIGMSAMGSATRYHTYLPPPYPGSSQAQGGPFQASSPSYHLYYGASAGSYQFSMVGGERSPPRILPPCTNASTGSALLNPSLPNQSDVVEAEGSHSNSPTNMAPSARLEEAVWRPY
Chain of Runt-related transcription factor 1/Core-binding factor subunit beta (Q13951 whole entry, the tested form may be a part): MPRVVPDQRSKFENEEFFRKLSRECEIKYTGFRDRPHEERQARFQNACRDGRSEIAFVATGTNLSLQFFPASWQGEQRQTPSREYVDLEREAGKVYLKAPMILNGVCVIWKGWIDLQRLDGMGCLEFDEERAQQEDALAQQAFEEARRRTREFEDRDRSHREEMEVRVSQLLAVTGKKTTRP

[13] = target: T3, Hexokinase-1 (Homo sapiens, UniProt P19367); test: HK1 enzyme activation by HKDC1 hits – biochemical, selectivity assay for HKDC1 activator project, dose response (AID 504762); format: functional
T3 sequence (P19367 whole entry): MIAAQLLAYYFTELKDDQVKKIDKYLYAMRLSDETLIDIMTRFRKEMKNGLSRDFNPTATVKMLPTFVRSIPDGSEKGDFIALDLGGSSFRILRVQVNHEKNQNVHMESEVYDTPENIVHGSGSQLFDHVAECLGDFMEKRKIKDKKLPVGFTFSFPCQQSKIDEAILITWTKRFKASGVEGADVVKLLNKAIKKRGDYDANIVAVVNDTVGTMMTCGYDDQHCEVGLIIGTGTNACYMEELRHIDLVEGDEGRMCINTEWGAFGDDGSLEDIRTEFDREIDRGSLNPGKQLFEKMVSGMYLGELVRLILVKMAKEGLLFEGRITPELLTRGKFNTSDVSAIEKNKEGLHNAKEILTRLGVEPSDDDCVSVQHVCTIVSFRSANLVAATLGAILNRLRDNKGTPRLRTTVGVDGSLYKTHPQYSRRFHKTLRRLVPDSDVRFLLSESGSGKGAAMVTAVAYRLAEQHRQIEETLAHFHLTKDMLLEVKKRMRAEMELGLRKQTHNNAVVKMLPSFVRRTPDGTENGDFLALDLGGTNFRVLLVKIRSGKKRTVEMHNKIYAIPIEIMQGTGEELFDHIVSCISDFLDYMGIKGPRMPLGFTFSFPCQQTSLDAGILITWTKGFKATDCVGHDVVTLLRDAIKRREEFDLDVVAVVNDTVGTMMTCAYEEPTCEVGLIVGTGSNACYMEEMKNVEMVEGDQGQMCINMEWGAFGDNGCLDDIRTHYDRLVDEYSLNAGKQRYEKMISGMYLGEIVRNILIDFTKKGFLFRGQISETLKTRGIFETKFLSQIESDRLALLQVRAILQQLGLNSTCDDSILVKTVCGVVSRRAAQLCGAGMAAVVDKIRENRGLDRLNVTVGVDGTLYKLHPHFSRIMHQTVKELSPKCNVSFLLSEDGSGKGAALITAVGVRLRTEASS

[14] = target: T4, Hexokinase HKDC1 (Homo sapiens, UniProt Q2TB90); test: activation of HKDC1 glucose phosphorylation – biochemical, W721R variant, dose response (AID 504730); format: functional
T4 sequence (Q2TB90 whole entry): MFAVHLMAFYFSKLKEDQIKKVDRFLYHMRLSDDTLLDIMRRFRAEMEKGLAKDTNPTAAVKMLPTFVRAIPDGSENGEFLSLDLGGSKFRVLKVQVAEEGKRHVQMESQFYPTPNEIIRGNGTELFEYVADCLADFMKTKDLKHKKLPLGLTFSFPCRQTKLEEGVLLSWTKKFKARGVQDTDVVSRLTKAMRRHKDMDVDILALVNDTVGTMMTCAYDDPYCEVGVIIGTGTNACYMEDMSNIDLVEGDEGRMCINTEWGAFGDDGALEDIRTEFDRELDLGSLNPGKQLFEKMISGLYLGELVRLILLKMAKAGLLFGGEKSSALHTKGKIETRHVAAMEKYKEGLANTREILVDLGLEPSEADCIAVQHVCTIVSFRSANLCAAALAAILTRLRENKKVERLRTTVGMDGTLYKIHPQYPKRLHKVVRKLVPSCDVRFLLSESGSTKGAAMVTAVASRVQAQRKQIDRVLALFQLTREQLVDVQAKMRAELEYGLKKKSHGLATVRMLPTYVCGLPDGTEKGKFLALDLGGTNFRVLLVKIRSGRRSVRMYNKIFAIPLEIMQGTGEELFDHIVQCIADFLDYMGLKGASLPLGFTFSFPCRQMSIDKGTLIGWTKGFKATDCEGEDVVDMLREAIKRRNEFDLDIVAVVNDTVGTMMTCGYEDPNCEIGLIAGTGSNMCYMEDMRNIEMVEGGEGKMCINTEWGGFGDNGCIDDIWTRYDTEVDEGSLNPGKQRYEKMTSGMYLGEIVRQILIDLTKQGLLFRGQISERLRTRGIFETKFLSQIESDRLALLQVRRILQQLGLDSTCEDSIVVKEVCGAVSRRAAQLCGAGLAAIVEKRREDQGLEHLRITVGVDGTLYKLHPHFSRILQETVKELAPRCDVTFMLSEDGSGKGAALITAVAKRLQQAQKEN

Chain of Nucleotide-binding oligomerization domain-containing protein 2 (Q9HC29 whole entry, the tested form may be a part): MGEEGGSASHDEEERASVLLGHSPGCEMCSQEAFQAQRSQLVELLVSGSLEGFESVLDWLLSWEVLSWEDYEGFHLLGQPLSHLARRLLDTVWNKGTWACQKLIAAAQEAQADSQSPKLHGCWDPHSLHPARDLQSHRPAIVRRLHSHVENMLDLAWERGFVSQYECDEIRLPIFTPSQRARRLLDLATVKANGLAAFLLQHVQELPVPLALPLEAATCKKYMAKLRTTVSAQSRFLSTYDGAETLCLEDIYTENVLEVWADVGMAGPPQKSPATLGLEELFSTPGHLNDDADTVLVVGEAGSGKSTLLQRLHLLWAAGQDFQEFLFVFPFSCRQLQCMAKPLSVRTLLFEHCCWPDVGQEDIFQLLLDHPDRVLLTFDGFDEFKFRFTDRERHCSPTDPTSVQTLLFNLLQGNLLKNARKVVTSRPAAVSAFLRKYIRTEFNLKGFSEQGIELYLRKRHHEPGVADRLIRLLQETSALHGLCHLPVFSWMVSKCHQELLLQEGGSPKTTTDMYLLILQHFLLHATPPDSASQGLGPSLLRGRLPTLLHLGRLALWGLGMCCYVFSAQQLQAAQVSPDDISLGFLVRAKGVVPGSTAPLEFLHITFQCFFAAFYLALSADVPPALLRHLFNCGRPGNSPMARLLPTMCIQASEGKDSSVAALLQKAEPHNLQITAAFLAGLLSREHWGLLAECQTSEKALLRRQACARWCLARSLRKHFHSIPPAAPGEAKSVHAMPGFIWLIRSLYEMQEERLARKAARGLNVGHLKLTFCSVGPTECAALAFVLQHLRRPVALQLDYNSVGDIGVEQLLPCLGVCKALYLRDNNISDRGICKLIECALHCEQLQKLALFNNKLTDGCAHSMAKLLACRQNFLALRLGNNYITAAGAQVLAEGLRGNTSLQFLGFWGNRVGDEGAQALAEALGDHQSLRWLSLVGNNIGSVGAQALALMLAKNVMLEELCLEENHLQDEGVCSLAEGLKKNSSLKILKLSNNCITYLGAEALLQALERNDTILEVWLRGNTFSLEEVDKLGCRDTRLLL

Compound | EC50 [1] | IC50 [2] | IC50 [3] | IC50 [4] | EC50 [5] | CC50 [6] | IC50 [7] | EC50 [8] | EC50 [9] | AC50 [10] | EC50 [11] | IC50 [12] | EC50 [13] | EC50 [14]
Nc1nn2c(O)cc(-c3ccccc3)nc2c1N=Nc1ccc2c(c1)OCO2 | > 20 µM (inactive) | > 20 µM (inactive) | 19 µM (active) | 14.5 µM (inactive) | 18.4 µM (active) | 29.9 µM (active) | > 20 µM (inactive) | 3.77 µM (active) | 2.16 µM (active) |  |  |  |  | 
O=C(CCl)Nc1c2c(nn1-c1ccccc1)CSC2 | > 20 µM (inactive) | > 20 µM (inactive) | > 20 µM (inactive) | 15.1 µM (inactive) | 3.07 µM (active) |  | 8.63 µM (active) |  |  | 60.5 µM (active) | 11.4 µM (active) |  |  | 
O=S(=O)(Nc1ccc(-c2nc3cccnc3s2)cc1)c1ccccc1F |  |  |  |  |  |  |  |  |  |  |  | > 50 µM (inactive) |  | 
CC(=O)N1CCN(C2c3cccc4cccc(c34)C2NS(=O)(=O)c2ccccc2)CC1 (stereo not given) |  |  |  |  |  |  |  |  |  |  |  |  | 29.4 µM (inactive) | 48.9 µM (inactive)
